Reference: patent US20110040088A1, “FUSED HETEROCYCLIC COMPOUNDS” (priority 2003, published 2011)
pKi: −log10 of the molar value. Read-outs that look alike come from different tables or passages of the source.

What was measured:
[1] = biological target: T1, rat 5-HT7a receptor (Rattus norvegicus, UniProt P32305); test: Adenylyl cyclase assay (5-CT-stimulated cAMP) in r5-HT7a/HEK-293 cells; assay type: cell-based
T1 construct: expressed in transfected cells
Experimental: 2. Effect on Adenylyl Cyclase Activity
In vitro functional properties of the compounds described in this invention were evaluated in an adenylyl cyclase assay. HEK-293 cells stably tranfected with the rat 5-HT7a receptor were plated into 96-well plates. Cells were washed with 200 μL DNEM/F12 and incubated for 10 min with 80 μL of 2 mM 3-isobutyl-1-methylxanthine. Compounds (10 μL) were added for another 10 min. Subsequently, 5-CT (10 μL) was added. After 20 min the incubation was stopped by the addition of 20 μL of 0.5 N HCl. Plates were incubated at 4° C. for 30 min. Twenty μL of the supernatant were assayed for cAMP content with a commercially available kit (Perkin Elmer) using ^125I-cAMP. Sigmoidal curves of best fit were calculated by nonlinear regression analysis using GrapPad Prism.
5-CT-stimulated adenylyl cyclase activity in r5-HT7a/HEK-293 cells was inhibited by Example 59 with an estimated pKB˜8 in good agreement with the Ki value determined from [^3H]5-CT binding studies.

[2] = biological target: T1, rat 5-HT7a receptor; test: 5-HT7 receptor radioligand binding ([3H]5-CT, membranes of transfected HEK-293 cells); conditions: rat 5-HT7a in HEK-293 membranes, 1 nM [3H]5-CT
[3] = biological target: 5-HT2A receptor (UniProt P28223); test: 5-HT2A receptor radioligand binding ([3H]ketanserin); conditions: read-out: Ki 5-HT2A, table does not say whether rat cortex or human recombinant (NIH3T3) receptor;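 also: competitive displacement binding on membranes, either from rat cerebral cortex or from NIH3T3 cells stably expressing human 5-HT2A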
Experimental: The affinity of the compounds for the rat 5-HT2A receptor was evaluated by competitive radioligand binding assay using [^3H]ketanserine as the radioligand. The assay was performed on membranes from rat cortex as previously described (Schotte, A. et al., Psychopharmacology (1996) 124: 57-73). Briefly, brain tissue (rat cortex) was homogenized in 20 volumes per wet weight tissue of Tris-HCl buffer (50 mM, pH 7.4). The total membrane fraction was collected by centrifugation and washed by subsequent centrifugation runs (25 min at 25,000 g at 4° C.). Membranes were re-suspended in Tris-HCl buffer (50 mM, pH 7.4) containing 1 nM [^3H]ketanserin. Non-specific binding was estimated in the presence of 10 μM risperidone.

[4] = biological target: human recombinant 5-HT2B receptor (Homo sapiens, UniProt P41595); test: 5-HT2B receptor radioligand binding ([3H]mesulergine, CHO membranes);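 also: competitive displacement binding on membranes of CHO cells stably expressing the receptor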
Sequence of human recombinant 5-HT2B receptor (P41595 whole entry): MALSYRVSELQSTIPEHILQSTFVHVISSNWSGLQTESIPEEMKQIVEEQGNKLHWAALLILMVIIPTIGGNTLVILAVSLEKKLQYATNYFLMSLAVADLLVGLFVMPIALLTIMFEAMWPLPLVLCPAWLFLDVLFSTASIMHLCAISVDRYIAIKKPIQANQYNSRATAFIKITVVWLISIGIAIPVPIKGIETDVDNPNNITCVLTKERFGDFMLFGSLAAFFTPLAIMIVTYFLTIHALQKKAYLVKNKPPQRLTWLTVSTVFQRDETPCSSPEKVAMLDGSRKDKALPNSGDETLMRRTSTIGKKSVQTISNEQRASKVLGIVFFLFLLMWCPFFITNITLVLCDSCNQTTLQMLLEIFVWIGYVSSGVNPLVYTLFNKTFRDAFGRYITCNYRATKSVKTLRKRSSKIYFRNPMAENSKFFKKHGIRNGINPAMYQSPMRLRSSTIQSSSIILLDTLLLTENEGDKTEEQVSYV
Experimental: (§1) Affinity for 5HT2 Receptor Binding Sites
(§2) Receptor binding was performed using the human recombinant 5-HT2A (GB: X57830), 5-HT2B (GB: Z36748) and 5-HT2c (GB: M81778) receptors. The affinity of the compounds for the 3 different human 5-HT2 receptor subtypes was evaluated by competitive radioligand binding assays using [^3H]ketanserin (h5-HT2A) or [^3H]mesulergine (h5-HT2B and h5-HT2c). The assays were performed on membranes prepared from NIH3T3 stably transfected with h5-HT2A or CHO stably transfected with h5-HT2B and h5-HT2C.

[5] = biological target: T2, human recombinant 5-HT2C receptor (Homo sapiens, UniProt P28335); test: 5-HT2C receptor radioligand binding ([3H]mesulergine, CHO membranes);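 also: competitive displacement of the tritiated ligand, using membranes from CHO cells stably transfected with the human receptor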
T2 sequence (P28335 33-458): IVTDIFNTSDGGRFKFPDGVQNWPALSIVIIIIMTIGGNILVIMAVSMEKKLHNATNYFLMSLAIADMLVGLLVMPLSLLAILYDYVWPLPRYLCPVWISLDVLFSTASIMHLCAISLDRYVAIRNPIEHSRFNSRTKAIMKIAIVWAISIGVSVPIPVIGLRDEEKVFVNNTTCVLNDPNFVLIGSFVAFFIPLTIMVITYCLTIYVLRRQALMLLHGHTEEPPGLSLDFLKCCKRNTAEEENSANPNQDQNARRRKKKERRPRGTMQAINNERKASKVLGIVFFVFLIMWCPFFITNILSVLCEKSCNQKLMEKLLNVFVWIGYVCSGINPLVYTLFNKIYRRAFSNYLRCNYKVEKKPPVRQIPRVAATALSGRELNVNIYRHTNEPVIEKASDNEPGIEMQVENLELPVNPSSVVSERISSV
Experimental: as §1, §2

[6] = read-out: Ki 5-HT2C, h5-HT2C in CHO membranes, [3H]mesulergine

T1 sequence (P32305 whole entry): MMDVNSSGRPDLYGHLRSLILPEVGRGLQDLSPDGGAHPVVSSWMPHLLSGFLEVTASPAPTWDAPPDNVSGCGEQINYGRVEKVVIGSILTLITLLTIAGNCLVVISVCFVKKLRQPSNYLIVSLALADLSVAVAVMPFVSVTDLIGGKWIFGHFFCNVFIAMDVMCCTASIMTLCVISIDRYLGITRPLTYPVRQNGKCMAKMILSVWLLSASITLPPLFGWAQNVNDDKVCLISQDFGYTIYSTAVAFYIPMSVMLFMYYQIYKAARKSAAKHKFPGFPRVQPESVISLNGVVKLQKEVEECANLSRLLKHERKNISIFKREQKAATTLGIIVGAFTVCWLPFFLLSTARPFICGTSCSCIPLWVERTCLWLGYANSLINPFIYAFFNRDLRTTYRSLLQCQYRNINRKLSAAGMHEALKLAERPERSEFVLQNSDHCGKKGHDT

Row | Compound | Kb ([1]; printed in the Ki 5-HT7 column of Table 1, read-out: pKb 5-HT7 (converted)) [nM] | pKi [2] | Kb ([1]; r5-HT7a/HEK-293 cells, estimated) [nM] | pKi [3] | pKi [4] | pKi [5] | pKi [5, 6] | pKi ([4]; read-out: Ki 5-HT2B, h5-HT2B in CHO membranes, [3H]mesulergine)
1 | CN1CCc2c(c(-c3ccc(Cl)cc3)cn2Cc2ccccc2)C1 [Example 38, 1-Benzyl-3-(4-chloro-phenyl)-5-methyl-4,5,6,7-tetrahydro-1H-pyrrolo[3,2-c]pyridine] | 15.8 | – | – | – | – | – | – | –
2 | Clc1ccc(-c2nn(Cc3ccccc3)c3c2CCNCC3)cc1 [Example 59, 1-Benzyl-3-(4-chloro-phenyl)-1,4,5,6,7,8-hexahydro-1,2,6-triaza-azulene] | – | 8.22 | ~10 | 6.55 | 6.80 | 7.13 | – | –
3 | Fc1cc(-c2c3c(nn2C2CCCC2)CCNCC3)ccc1Cl [Example 241, 3-(4-Chloro-3-fluoro-phenyl)-2-cyclopentyl-2,4,5,6,7,8-hexahydro-1,2,6-triaza-azulene] | – | 6.51 | – | 8.05 | 8.02 | 7.42 | – | –
4 | COc1ccc(-c2c3c(nn2C(C)C)CCNCC3)cc1 [Example 242, 2-Isopropyl-3-(4-methoxy-phenyl)-2,4,5,6,7,8-hexahydro-1,2,6-triaza-azulene] | – | 7.68 | – | 8.10 | 8.89 | – | 7.35 | –
5 | c1ccc(-c2c3c(nn2C2CCC2)CCNCC3)cc1 [Example 276, 2-Cyclobutyl-3-phenyl-2,4,5,6,7,8-hexahydro-1,2,6-triaza-azulene] | – | 7.05 | – | 8.52 | 8.60 | – | 7.05 | –
6 | Fc1ccc(-c2c3c(nn2C2CCC2)CCNCC3)cc1 [Example 277, 2-Cyclobutyl-3-(4-fluoro-phenyl)-2,4,5,6,7,8-hexahydro-1,2,6-triaza-azulene] | – | 6.82 | – | 9.05 | 8.52 | 7.40 | – | –
7 | Cc1ccc(-c2c3c(nn2C2CCC2)CCNCC3)cc1 [Example 278, 2-Cyclobutyl-3-p-tolyl-2,4,5,6,7,8-hexahydro-1,2,6-triaza-azulene] | – | 7.46 | – | 10.00 | 9.70 | 8.00 | – | –
8 | FC(F)(F)c1ccc(-c2c3c(nn2C2CCC2)CCNCC3)cc1 [Example 279, 2-Cyclobutyl-3-(4-trifluoromethyl-phenyl)-2,4,5,6,7,8-hexahydro-1,2,6-triaza-azulene] | – | 7.10 | – | 9.10 | 9.00 | 7.35 | – | –
9 | N#Cc1ccc(-c2c3c(nn2C2CCC2)CCNCC3)cc1 [Example 280, 4-(2-Cyclobutyl-2,4,5,6,7,8-hexahydro-1,2,6-triaza-azulen-3-yl)-benzonitrile] | – | 5.48 | – | 8.82 | 8.22 | 6.92 | – | –
10 | Fc1ccc(-c2c3c(nn2C2CC2)CCNCC3)cc1 [Example 282, 2-Cyclopropyl-3-(4-fluoro-phenyl)-2,4,5,6,7,8-hexahydro-1,2,6-triaza-azulene] | – | 7.00 | – | 8.22 | – | – | 6.70 | 7.70
11 | CCC(CC)n1nc2c(c1-c1ccc(F)c(C)c1)CCNCC2 [Example 283, 2-(1-Ethyl-propyl)-3-(4-fluoro-3-methyl-phenyl)-2,4,5,6,7,8-hexahydro-1,2,6-triaza-azulene] | – | 5.30 | – | 8.00 | 7.22 | 6.82 | – | –
12 | Cc1ccc(-c2c3c(nn2C2CC2)CCNCC3)cc1 [Example 284, 2-Cyclopropyl-3-p-tolyl-2,4,5,6,7,8-hexahydro-1,2,6-triaza-azulene] | – | 8.00 | – | 9.00 | 8.70 | 7.22 | – | –
13 | c1cc(-c2c3c(nn2C2CC2)CCNCC3)cs1 [Example 285, 2-Cyclopropyl-3-thiophen-3-yl-2,4,5,6,7,8-hexahydro-1,2,6-triaza-azulene] | – | 7.54 | – | 7.22 | 8.22 | 6.30 | – | –
14 | N#Cc1ccc(-c2c3c(nn2C2CC2)CCNCC3)cc1 [Example 286, 4-(2-Cyclopropyl-2,4,5,6,7,8-hexahydro-1,2,6-triaza-azulen-3-yl)-benzonitrile] | – | 6.47 | – | 7.30 | 7.10 | 5.30 | – | –
15 | CCC(C)n1nc2c(c1-c1ccccc1)CCNCC2 (centres unmarked) [Example 298, 2-sec-Butyl-3-phenyl-2,4,5,6,7,8-hexahydro-1,2,6-triaza-azulene] | – | 7.30 | – | 8.30 | 8.19 | 7.22 | – | –
16 | CCC(C)n1nc2c(c1-c1ccc(F)cc1)CCNCC2 (centres unmarked) [Example 299, 2-sec-Butyl-3-(4-fluoro-phenyl)-2,4,5,6,7,8-hexahydro-1,2,6-triaza-azulene] | – | 7.46 | – | 8.77 | 8.05 | 7.59 | – | –
17 | CCC(C)n1nc2c(c1-c1ccc(C)cc1)CCNCC2 (centres unmarked) [Example 300, 2-sec-Butyl-3-p-tolyl-2,4,5,6,7,8-hexahydro-1,2,6-triaza-azulene] | – | 8.00 | – | 9.52 | 9.10 | 7.92 | – | –
18 | CCC(C)n1nc2c(c1-c1ccc(C(F)(F)F)cc1)CCNCC2 (centres unmarked) [Example 301, 2-sec-Butyl-3-(4-trifluoromethyl-phenyl)-2,4,5,6,7,8-hexahydro-1,2,6-triaza-azulene] | – | 7.40 | – | 8.80 | 8.52 | 7.00 | – | –
19 | CN1CCc2nn(C3CCCC3)c(-c3ccc(F)cc3)c2CC1 [Example 302, 2-Cyclopentyl-3-(4-fluoro-phenyl)-6-methyl-2,4,5,6,7,8-hexahydro-1,2,6-triaza-azulene] | – | 7.00 | – | 9.70 | 8.89 | 7.67 | – | –
20 | CC1CN(Cc2ccccc2)CCc2c1nn(C(C)C)c2-c1ccc(F)cc1 (centres unmarked) [Example 305, 6-Benzyl-3-(4-fluoro-phenyl)-2-isopropyl-8-methyl-2,4,5,6,7,8-hexahydro-1,2,6-triaza-azulene] | – | 6.22 | – | 7.70 | 7.22 | 5.66 | – | –
21 | CC1CNCCc2c1nn(C(C)C)c2-c1ccc(F)cc1 (centres unmarked) [Example 306, 3-(4-Fluoro-phenyl)-2-isopropyl-8-methyl-2,4,5,6,7,8-hexahydro-1,2,6-triaza-azulene] | – | 6.92 | – | 9.00 | 7.66 | 7.41 | – | –
22 | CC1Cc2nn(C3CCCC3)c(-c3ccc(F)cc3)c2CCN1 (centres unmarked) [Example 308, 2-Cyclopentyl-3-(4-fluoro-phenyl)-7-methyl-2,4,5,6,7,8-hexahydro-1,2,6-triaza-azulene] | – | 5.28 | – | 8.70 | 8.52 | 6.79 | – | –
23 | CC1Cc2c(nn(C3CCCC3)c2-c2ccc(F)cc2)CCN1 (centres unmarked) [Example 309, 2-Cyclopentyl-3-(4-fluoro-phenyl)-5-methyl-2,4,5,6,7,8-hexahydro-1,2,6-triaza-azulene] | – | 6.89 | – | 7.52 | 7.82 | 6.89 | – | –
24 | Cc1ccc(-c2c3c(nn2C2CCCC2)CC(C)NCC3)cc1 (centres unmarked) [Example 310, 2-Cyclopentyl-7-methyl-3-p-tolyl-2,4,5,6,7,8-hexahydro-1,2,6-triaza-azulene] | – | 6.32 | – | 9.70 | 9.40 | 7.52 | – | –
25 | CC1Cc2nn(C(C)C)c(-c3ccccc3)c2CCN1 (centres unmarked) [Example 311, 2-Isopropyl-7-methyl-3-phenyl-2,4,5,6,7,8-hexahydro-1,2,6-triaza-azulene] | – | 7.10 | – | 6.85 | 7.00 | 5.52 | – | –
26 | CC1Cc2nn(C(C)C)c(-c3ccc(F)cc3)c2CCN1 (centres unmarked) [Example 313, 3-(4-Fluoro-phenyl)-2-isopropyl-7-methyl-2,4,5,6,7,8-hexahydro-1,2,6-triaza-azulene] | – | 7.52 | – | 7.00 | 7.40 | 6.00 | – | –
27 | Cc1ccc(-c2c3c(nn2C(C)C)CC(C)NCC3)cc1 (centres unmarked) [Example 315, 2-Isopropyl-7-methyl-3-p-tolyl-2,4,5,6,7,8-hexahydro-1,2,6-triaza-azulene] | – | 7.92 | – | 8.05 | 8.52 | 6.52 | – | –
28 | Clc1ccc(-c2nn(Cc3ccncc3)c3c2CCNCC3)cc1 [Example 316, 3-(4-Chloro-phenyl)-1-pyridin-4-ylmethyl-1,4,5,6,7,8-hexahydro-1,2,6-triaza-azulene] | – | 8.04 | – | 7.22 | 6.28 | 5.30 | – | –
